Where “and” joins values, the source holds several entries; their conditions need not be identical. Identical values can stand only once. Marks after values point to notes of the source that are not given here.
Tests used:
[1] = test system: rat skin under UVB radiation; test: Second test: UVB-induced dermal erythema and sunburnt cells in rat skin; assay type: in vivo; design: key to presence or absence of erythema or its manifestations in the treated area, per animal: presence (+); absence (−)
Description: They were acclimatized to the location where the tests were carried out during 7 days after being received. […] The animals were fed ad libitum with a standard rodent diet and running water during this period and during the experimental period. […] The products to be tested were applied directly on the skin as a gel. The test was conducted following the method described by Winder et al. “A Study of Pharmacological Influences of Ultraviolet Erythema in Guinea Pigs”. Arch. Int Pharmacodyn, 116: 261-292. 1958, and other authors such as Wendy, J et al. “The Local Antinociceptive and Topical Anti-inflammatory Effects of Propyl Gallate in Rodents”. Br. J. Pharmacol, 58: 573-581. 1976, and […]. et al. “Protective Effects of Silymarin Against Photocarcinogenesis in a Mouse Skin Model”. J. Natl. Cancer Inst. 89: 556-65. 1997, with slight modifications. The animals were shaved clean six days before the test to eliminate all traces of hair, leaving the skin on their backs completely bare. A morning (10:00 h) and evening (20:00 h) dosage regime for the substance to be tested or for the standard commenced on the first day of the test on a randomized and blind basis lasting 3 days. On the third day, after applying the corresponding morning treatments, the animals were placed and secured in the equipment's exposure platform. The animals were then placed 8 cm from the 4*40 W ultraviolet light source emitting at a fundamental frequency of 313 nm and in a range from approximately 290 to 350 nm, with an anti-UVC filter. The exposure was maintained until all animals received a total dosage of approximately 2.5 kJ/m2, with the irradiation dosis determined by means of an ultraviolet light detector. The backs of the animals were photographed 24 hours after the exposure, and the animals were sacrificed by cervical dislocation. The back skin was removed and a 2×2 cm fragment located under the area were the substance to be tested was applied was placed and maintained for 6 hours in a jar with 10% tamponated formalin, before initiating the paraffin inclusion process and preparation for the histological study. The preparations were observed under an optical microscope and the epidermal-dermal space was photographed at ×100 magnification in 5 different locations for each preparation. A count of sunburnt cells was made for each photograph, considering cells as sunburnt if they had hypereosinophilic cytoplasm with small dark and irregular dense nuclei different than those of its neighbors. The evaluation of the erythema was made on a positive/negative basis, obtaining the percentage of protected animals. The number of hypereosinophilic cells with pyknotic nuclei (sunburnt) was counted in the photographic fields for each of the five different sectors in each histological preparation. The sum of the five counts was considered as the value for each animal. […] The statistical significance of the differences was evaluated by means of non-parametric tests, such as the Fisher Test or the χ^2 (Chi Squared).

[2] = UV/VIS comparative spectral absorption; assay type: physicochemical
From the text: The AEDA was subjected to a UV/VIS spectral analysis at 200-400 nm to determine the peak absorbency of the compounds with UV absorbing characteristics present in the AEDA. A SHIMADZU UV-160 photospectrometer was used for this purpose, with the samples diluted in ethanol until a visible reading in the spectrum was obtained.
The AEDA absorption spectra show maximum absorption at wavelengths under 240 nm. In the band from approximately 250 nm to 350 nm. AEDA offers stable absorbency between 0.75 and 1.5 UA that blocks a significant amount of UVC, UVB and the more energetic portion of UVA light. Part of its effects may therefore be due to a screen effect that prevents the luminous radiation from reaching the skin.
The first two are located before the UVC band, and the third appears above 285 nm and extends to almost 340 nm. This behavior is typical of the polyphenols present in numerous vegetals, which provide and an effective screen effect that protects plants from solar light. When comparing the concentrations required to reach similar absorbencies, it can be observed that ferulic acid develops its effective blocking ability at 50 μg/ml, whereas with AEDA, 500 μg/ml produce a block equivalent to 50% of that obtained with 50 μg/ml of ferulic acid. To produce similar blocking intensities, the necessary concentrations of AEDA must be 10 to 50 times higher than with ferulic acid.

[3] = EDA 300 mg/ml or ferulic acid 0.5% topical, p < 0.01 versus Vehicle

Question: What does the source list for COc1cc(/C=C/C(=O)O)ccc1O [Ferulic Acid, ferulic acid]?
Answer: number of sunburnt cells, Average ± S.E.M. ([1]; 10 animals per group, EDA 300 mg/ml or ferulic acid 0.5% topical, positive control vehicle 32.7 ± 1.52): 5.2 ± 1.08; number of sunburnt cells (in words) ([1]; AEDA 300 mg/ml or ferulic acid 0.5% topical, histology): small; erythema, % inhibition versus Positive Control Vehicle (suppression, subjective criteria) ([1]; EDA 300 mg/ml or ferulic acid 0.5% topical): 90%; erythema, % Protected animals [1, 3]: 70%*; sunburnt cells, % inhibition versus Positive Control Vehicle [1, 3]: 84.1%*; erythema, % Protected animals ([1]; EDA 300 mg/ml or ferulic acid 0.5% topical, p < 0.01 versus Vehicle, listed as ferulic acid): 70%; presence or absence of erythema or its manifestations in the treated area, per animal ([1]; individual animals 1-10, EDA 300 mg/ml or ferulic acid 0.5% topical, 24 hours after UVB exposure): − (6×) and + (3×); number of sunburnt cells per animal (sum of five counts) ([1]; individual animals 1-10, EDA gel 300 mg/ml or ferulic acid gel 0.5%, 100 μl topical twice daily for 3 days, UVB approx. 2.5 kJ/m2, 24 hours after exposure): 8 and 4 (2×) and 3 (2×) and 2 and 10 and 0 and 11 and 7; concentration at which effective UV blocking ability develops [2]: 50 µg/mL

— patent publication US8357407B2, “Agent for cutaneous photoprotection against UVA/UVB rays” (priority 2009, dated 2013)
